Experimental data published in paper PMC9851200, “Multiparameter phenotypic screening for endogenous TFEB and TFE3 translocation identifies novel chemical series modulating lysosome function” (Autophagy, 2022).

Assays:
TFEB = test: Cellular fractionation and western blot of nuclear/cytoplasmic TFEB; assay type: cell-based; settings: nuclear/cytoplasmic TFEB ratio, western blot
Description: Cells were washed with cold PBS (ThermoFisher Scientific/Gibco, 10,010–015) and lysed in RIPA buffer (0.5% Triton X-100, 10 mM Tris/HCl, pH 8.0, 1 mM EDTA (Sigma Aldrich, E6511), 0.5 mM EGTA (Sigma Aldrich, E3889), 0.1% sodium dodecyl sulfate [SDS], 0.02% sodium deoxycholate (Sigma Aldrich, D6750), and 140 mM NaCl (Sigma Aldrich, S9625) supplemented with protease-inhibitor cocktail (Sigma Aldrich/Roche, 4,693,132,001) and phosphatase inhibitors (Roche/Sigma Aldrich, 4,906,845,001) for 30 min at 4°C. The lysates were centrifuged at 13,000 g for 15 min and the supernatants collected. Protein concentration was quantified using BCA reagent (Thermofisher Scientific, 23,252) and 4× SDS Laemmli buffer was added. The samples were boiled at 95°C for 5 min before SDS-polyacrylamide gel electrophoresis (SDS-PAGE) using Mini-PROTEAN® Precast Gels (Bio-Rad, 4,568,094). Ten micrograms of protein per lane were separated by SDS/PAGE and transferred to a PVDF membrane using the Trans-Blot Turbo Transfer System (Bio-Rad, Hercules, CA, USA). […] Nuclear and cytoplasmic fractions were assessed with a LMNA/lamin A/C antibody (Santa Cruz Biotechnology, sc-7292) or GAPDH antibody (Abcam, ab9484), respectively.
Figure S5. […] (C) The levels of nuclear/cytoplasmic TFEB were quantified and presented as a ratio. […]

PRKD3 = target: T1, PRKD3 (Homo sapiens, UniProt O94806); test: KiNativ in-cell kinase binding, PRKD3; set-up: endogenous in cells; host or cells: SH-SY5Y; settings: for inhibition at 2 µM: SH-SY5Y cells
T1 sequence (O94806 1-890): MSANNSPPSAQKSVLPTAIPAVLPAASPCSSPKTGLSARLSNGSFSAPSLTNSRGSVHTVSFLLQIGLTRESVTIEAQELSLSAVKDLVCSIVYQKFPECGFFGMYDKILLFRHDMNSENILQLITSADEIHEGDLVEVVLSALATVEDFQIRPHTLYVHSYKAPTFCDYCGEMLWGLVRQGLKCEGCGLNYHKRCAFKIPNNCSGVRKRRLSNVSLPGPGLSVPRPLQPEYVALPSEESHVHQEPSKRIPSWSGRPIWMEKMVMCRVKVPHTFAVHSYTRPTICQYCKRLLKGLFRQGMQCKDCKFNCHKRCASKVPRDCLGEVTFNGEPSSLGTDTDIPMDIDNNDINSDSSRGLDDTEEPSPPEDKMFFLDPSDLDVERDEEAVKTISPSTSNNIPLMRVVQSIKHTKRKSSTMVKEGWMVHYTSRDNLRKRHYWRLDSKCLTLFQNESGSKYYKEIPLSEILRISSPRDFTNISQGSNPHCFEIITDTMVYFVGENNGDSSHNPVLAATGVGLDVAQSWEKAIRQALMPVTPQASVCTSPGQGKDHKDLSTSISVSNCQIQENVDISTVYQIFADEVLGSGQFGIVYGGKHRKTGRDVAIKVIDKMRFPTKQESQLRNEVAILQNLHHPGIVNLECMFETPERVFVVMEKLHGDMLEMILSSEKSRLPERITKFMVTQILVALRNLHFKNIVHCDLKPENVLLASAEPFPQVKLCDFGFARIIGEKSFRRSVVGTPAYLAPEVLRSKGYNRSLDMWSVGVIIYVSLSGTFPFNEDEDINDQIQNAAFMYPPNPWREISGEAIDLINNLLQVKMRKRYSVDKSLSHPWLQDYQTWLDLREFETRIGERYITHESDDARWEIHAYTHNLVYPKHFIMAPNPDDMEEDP
From the text: As KINOMEscan is an in vitro assay, and as different cell types have variable kinase expression profiles we sought to determine the kinase binding profile in our SH-SY5Y TFEB-relocalization cell model. […] Bound kinases were pulled down and analyzed by mass spectrometry to determine the in situ kinase binding profile for each compound.

[1] = target: kinases (KINOMEscan panel) (Homo sapiens, UniProt P57059); set-up: method as in original PKIS2 published data; settings: kinase SIK1; Published KINOMEscan; ref original PKIS2 published data; cited from earlier work
Chain of kinases (KINOMEscan panel) (P57059 whole entry): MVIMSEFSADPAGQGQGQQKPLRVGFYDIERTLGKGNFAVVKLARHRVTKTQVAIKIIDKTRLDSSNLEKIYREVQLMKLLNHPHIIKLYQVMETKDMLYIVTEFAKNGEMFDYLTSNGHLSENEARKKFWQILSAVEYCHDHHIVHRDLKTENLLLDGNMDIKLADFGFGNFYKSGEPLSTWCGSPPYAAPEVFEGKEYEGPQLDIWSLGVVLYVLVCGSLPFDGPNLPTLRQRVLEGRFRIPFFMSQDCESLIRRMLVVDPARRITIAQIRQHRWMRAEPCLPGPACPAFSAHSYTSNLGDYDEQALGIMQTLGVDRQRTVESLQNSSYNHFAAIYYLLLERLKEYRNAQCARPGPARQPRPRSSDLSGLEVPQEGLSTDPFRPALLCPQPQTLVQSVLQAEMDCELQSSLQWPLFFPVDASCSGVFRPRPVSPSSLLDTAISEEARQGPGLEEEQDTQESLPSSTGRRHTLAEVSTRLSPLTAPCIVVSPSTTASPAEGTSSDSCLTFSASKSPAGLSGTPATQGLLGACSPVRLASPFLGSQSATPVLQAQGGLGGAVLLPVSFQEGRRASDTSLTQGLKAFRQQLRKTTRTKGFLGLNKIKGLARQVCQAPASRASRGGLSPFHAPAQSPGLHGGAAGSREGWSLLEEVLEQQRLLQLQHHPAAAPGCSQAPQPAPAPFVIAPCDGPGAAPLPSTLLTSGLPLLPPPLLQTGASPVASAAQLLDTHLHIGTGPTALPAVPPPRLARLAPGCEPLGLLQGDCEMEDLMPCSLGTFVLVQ

For `Cc1cccc(-c2nc(Nc3ccc4ncsc4c3)c3ccccc3n2)n1` [NK140], the “Translocation of TFEB to the nucleus, cellular fractionation (in words)” value (TFEB) was “increased translocation of TFEB to the nucleus”, the inhibition at 2 µM (PRKD3; Labeling Site Lys1, DVAIKVIDK) was 71.5% and the inhibition at 2 µM (PRKD3; Labeling Site Lys2, NIVHCDLKPENVLLASAEPFPQVK) was 78.5%. The “KiNativ binding of PRKD3 (in words)” value (PRKD3; SH-SY5Y cells treated 2 h) was “bound”.
In the case of `Cc1cccc(-c2nc(Nc3ccncc3)c3ccccc3n2)n1` [NK215], the “KINOMEscan SIK1” value [1] is listed as 4.
